Results on 2 molecules are retold here after patent US5523320A, “N-methyldeacetylcolchiceinamide derivatives” (Ohgen Research Laboratories, Ltd., priority 1993, dated 1996).

One series deals with CDF male mice. In words: Acute toxicity test (intraperitoneal, 10 days observation). The class given is in vivo, mouse. The following applies: i.p. An excerpt:
Test example 2: Acute toxicity test

Series [1] relates to adriamycin-resistant mouse leukemic cells P388/ADR. The series can be described thus: In vitro cancer cell proliferation inhibition (Trypan Blue living cell count, 2 days culture). The settings on record: three separate experiments. The class given is cell-based. As to the method: (§1) Test example 1: In vitro cancer cell proliferation inhibiting text
(§2) Mouse leukemic cells p388/S and adriamycin-resistant mouse leukemic cells P388/ADR subculturally transplanted in the abdominal cavity of mice were taken out together with the asites therefrom, respectively, and after washing, suspended in RPMI 1640 media (each containing 10% fetal bovine serum and 10 μM 2-mercaptoethanol) to 2×10^5 cells/ml, respectively. 0.5 vol. % each of test solutions (solutions of the compound of the later-described in Example 1 in dimethylsulfoxide) were added to portions of each of these cell suspensions, respectively; and the mixtures were separately put into a 24-well culture plate and subjected to culture for 2 days in a 5% carbon dioxide culturing vessel. A 0.5% Trypan Blue solution was added to each of the cell culture broths in the same amount, and the 50% proliferation inhibitory concentration (IC50) of the compound of Example 1 was determined by counting the number of the cells not stained as living cells under a microscope.

The subject of series [2] is mouse leukemic cells P388/S. The description is as above. The class given is cell-based. The settings on record: three separate experiments. As to the method: as §1, §2
For series [3] the following is noted: literature / background; cited from earlier work.
Another series deals with cancer cells. The settings on record: literature; cited from earlier work.

SMILES strings stand for the structures. Values after ≈ are worked out from the molar mass of the structure shown. Values joined by “and” are separate entries in the source; they are usually repeats but may differ in a detail not shown here. Identical values can stand only once.

Consider `CNc1ccc2c(cc1=O)C(NC(=O)C1COC(C)(C)O1)CCc1cc(OC)c(OC)c(OC)c1-2` (stereo not shown) [Example 1, N-(O,O-isopropylideneglyceroyl)-N-methyldeacetylcolchiceinamide], for which the “acute toxicity symptoms: diarrhea or constipation” value with CDF male mice (groups of high dose) is on record as “cases where diarrhea or constipation arose were observed”. Moreover, the “acute toxicity symptoms: lie of hair” value in the series with CDF male mice (on and after one day after administration) is “the lie of hair got worse”. For the same molecule, the “acute toxicity symptoms: walking problems and paralysis” value with CDF male mice (survival cases in the 47 mg/kg administration group) is “walking problems as in the right leg and paralysis of one side of the body”. Also, the body weight change result in the series with CDF male mice (up to 2 to 4 days after administration and thereafter) was “tended to decrease up to 2 to 4 days after administration, but thereafter increased gradually”. Further, the IC50 turned out to be 9.2 ng/mL (≈ 0.019 µM) in series [1] (Mus musculus, P388/ADR, 48 h, read-out: Cytotoxicity IC50 (50% proliferation inhibitory concentration)) and 3.2 ng/mL (≈ 0.0066 µM) in series [2] (Mus musculus, 48 h, read-out: Cytotoxicity IC50 (50% proliferation inhibitory concentration)). Besides, the “Cytotoxicity IC50 (50% proliferation inhibitory concentration)” value is 11.0 ng/mL and 11.1 ng/mL in series [1] (2880 min); 4.2 ng/mL and 4.6 ng/mL in series [2] (2880 min).
Take `COc1cc2c(c(OC)c1OC)-c1ccc(OC)c(=O)cc1C(NC(C)=O)CC2` (stereo not shown) [colchicine]: the toxicity entry in series [3] is on record as “strong toxicity”. Also, the “pharmacological actions on cancer cells” value with cancer cells is “has pharmacological actions on cancer cells, gout, etc”.
